Experimental findings from BindingDB's records for doi:10.1016/j.bmcl.2012.06.023 (University of Siena, 2012) are described below.

Usually IC50 stands for the midpoint of a concentration-inhibition curve.

Subtilisin-like protease 1, sequence (O61142 220-690 limits assumed): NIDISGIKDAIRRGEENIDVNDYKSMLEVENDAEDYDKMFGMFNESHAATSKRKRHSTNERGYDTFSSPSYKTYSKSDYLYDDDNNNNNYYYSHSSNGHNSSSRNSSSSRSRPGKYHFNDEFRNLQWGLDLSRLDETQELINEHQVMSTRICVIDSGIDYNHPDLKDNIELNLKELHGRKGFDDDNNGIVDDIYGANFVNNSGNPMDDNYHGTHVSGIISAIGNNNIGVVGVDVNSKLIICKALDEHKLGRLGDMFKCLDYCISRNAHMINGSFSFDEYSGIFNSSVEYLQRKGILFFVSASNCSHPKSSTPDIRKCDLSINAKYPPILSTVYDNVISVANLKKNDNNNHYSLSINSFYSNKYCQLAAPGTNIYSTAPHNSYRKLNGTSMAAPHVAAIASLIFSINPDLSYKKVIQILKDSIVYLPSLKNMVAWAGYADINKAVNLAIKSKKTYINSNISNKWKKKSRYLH

This assay concerns the target Subtilisin-like protease 1 (Plasmodium falciparum, UniProt O61142). Nature of the assay: Inhibition of Plasmodium falciparum SUB1 by fluorimetric assay.
In turn, `Cc1cc(N=NCc2ccccc2[N+](=O)[O-])c2cc3c(cc2n1)OCO3` displayed an IC50 of 40 µM.

For the compound `Cc1cc(N=NCc2ccc(C#N)cc2)c2cc3c(cc2n1)OCO3`, it took 40 µM to reach half-maximal inhibition (IC50).

On to `Cc1cc(N=NCc2ccc([N+](=O)[O-])cc2)c2cc3c(cc2n1)OCO3`, for which inhibition was half-maximal at 20 µM (IC50).

Consider `O=[N+]([O-])c1ccc(CN=Nc2c3c(nc4ccccc24)CCCC3)cc1`, for which the IC50 is greater than 50 µM.

`O=[N+]([O-])c1ccc(CN=Nc2nc3ccccc3[nH]2)cc1`: the IC50 is greater than 50 µM.

As to `COc1ccc2nc(C)cc(N=NCc3ccc([N+](=O)[O-])cc3)c2c1` [TCMDC-123970], half-maximal inhibition (IC50) was put at 20 µM.
